What was measured:
[1] = test system: weaned pigs; assay: Preclinical study of the effects of azaperone administered via drinking water: body weight per pig; type: in vivo
Procedure: Preclinical Study of the Effects of Azaperone Administered Via Drinking Water The study was performed in weaned pigs to investigate the effect of azaperone that was continuously orally administered via drinking water on behaviour, feed conversion, growth and homogeneity of growth. Groups of approximately 250 pigs were enrolled in the study starting from the moment they were weaned. The pigs were housed according to everyday farming conditions in a conventional pig farm. All pigs were housed in similar buildings. Each group was housed in 2 compartments, gilts and barrows were housed in separate compartments. Pigs were kept in pens of approximately 12 individuals each. After weaning, the piglets were housed in continuous artificial light for the first 48 hours. Afterwards, pigs were housed in continuous darkness for the further duration of the study, except during observations (twice a day). During the course of the study, pigs were not vaccinated. A metaphylactic colistine treatment via drinking water was applied in each group starting from the fifth day after weaning. Treatment continued for seven days. Pigs were fed ad libitum. Troughs were filled automatically with a computerized system that records the supplied weight of feed per pen. During the first ten days of the nursery period, pigs were fed a pelleted weaner feed which had also been available to the piglets in the farrowing unit. Between the 10th and 15th day at the nursery, the weaner feed was gradually replaced by grower pellets which have been given until the 35th day. Finally a switch was made between the 35th and the 40th day from grower pellets to starter pellets. Tap water was available during the whole period of the study and was supplied via a water nipple in the feeding trough. The drinking water comprising azaperone was obtained by diluting Stresnil™ injection in water to obtain a concentration of 6 mg azaperone per liter drinking water. A primary dilution was prepared by diluting 90 ml of Stresnil™ 4% injectable solution with tap water to obtain 6 liters of preparation. This primary dilution was linked for 24 hours with an automatic dosing system which continuously diluted the preparation in the drinking water at a rate of 1 to 100. One preparation of the primary dilution was sufficient to treat 600 liters of drinking water which exceeded the anticipated daily consumed volume of water by the pigs in one compartment. The two following days, a new primary dilution was made fresh each morning and linked to the automatic dosing system for 24 hours. This study was a controlled parallel study with 4 sequential groups of approximately 250 weaned pigs each. The first and third group were treated with azaperone via the drinking water for 3 consecutive days. The second and fourth group were control groups treated with placebo (plain drinking water). After the completion of these four groups, two additional groups (one treated with azaperone and one control group) were included in the study to investigate more in detail the effect of the azaperone treatment on the behaviour of the pigs. In each of these additional groups, 5 pens of approximately 12 pigs were enclosed. On day one of the test period, water containing 6 mg azaperone per liter or placebo, was made available. Starting from the fourth day, the drinking water no longer contained azaperone. All pigs followed the normal procedures for further fattening. No pigs were brought to the slaughterhouse during the study (3 days dosing and 39 days follow-up). Body weights were determined for all pigs in groups 1 to 4. The body weight of each individual animal was determined a first time at the start of the study, just before movement to the nursery and a second time at the end of the study, after a period of 42 days in the nursery. […]

[2] = test system: pigs; settings: cited from earlier work
[3] = test system: weaned pigs; assay: Behaviour of the animals per pen (groups 5 and 6: pigs lying down, eating or drinking, hierarchical fights); type: in vivo
Procedure: This study was a controlled parallel study with 4 sequential groups of approximately 250 weaned pigs each. The first and third group were treated with azaperone via the drinking water for 3 consecutive days. The second and fourth group were control groups treated with placebo (plain drinking water). After the completion of these four groups, two additional groups (one treated with azaperone and one control group) were included in the study to investigate more in detail the effect of the azaperone treatment on the behaviour of the pigs. In each of these additional groups, 5 pens of approximately 12 pigs were enclosed.
In order to assess the effect of the azaperone treatment on the behaviour of the animals after weaning, the occurrence of hierarchical fights was followed in groups 1 to 4 and recorded by the Principal Investigator during a period of 1 week after weaning. Every day a behaviour score of 0 to 2 was given to each pen:
In groups 1 to 4, behaviour of the pigs was always scored as normal although hierarchical fighting was reported on the farm. […] These two additional groups (one treated with azaperone and one control group) were closely monitored for behavioural changes. During the first 7 hours after weaning and movement to the nurseries, the occurrence and severity of hierarchical fights, the number of pigs laying down, and the number of pigs eating or drinking, was recorded. […]

number of pigs lying down or eating versus placebo ([3]; groups 5 and 6, first 7 hours after initiation of treatment, 6 mg/liter drinking water): no difference
SMILES: O=C(CCCN1CCN(c2ccccn2)CC1)c1ccc(F)cc1 [azaperone]
body weight gained during the study ([1]; 6 mg azaperone per liter drinking water for 3 days, 42 day test period, mean±SD): 16.3 ± 3.31 kg
Final BW CoV (coefficient of variation) ([1]; after 42 days in the nursery): 18%
Final BW ([1]; after 42 days in the nursery, 6 mg/liter drinking water for first 3 days): 23.62 kg
body weight gain CoV (coefficient of variation) ([1]; over 42 days): 20%
body weight gain ([1]; over 42 days, 6 mg/liter drinking water for first 3 days): 16.34 kg
homogeneity of body weight distribution at the end of the testing period ([1]; versus placebo groups): more homogenous body weight distribution
effect on weight gain, feed consumption or feed efficiency ([2]; intramuscular administration to pigs, Gonyou et al., J. Anim. Sci. 1988): did not had significant effect
effect in promoting relative growth rate ([2]; intramuscular injection to pigs, Blackshaw, Aust. Vet. J. 1981): no effect
weight gain ([2]; intramuscular injection to pigs, Porter and Slusser, Veterinary Medicine 1985): increased weight gain
sedative effect ([3]; oral via drinking water, 6 mg/liter): absence of a sedative effect

Reference: patent US8486949B2, “Use of azaperone for improving growth performance” (Elanco Animal Health Ireland Limited, priority 2008, dated 2013)
